Laboratory results: patent publication US20070155661A1, “Methods and compositions for modulating the development of stem cells” (THE BOARD of TRUSTEES of the LELAND STANDORD JUNIOR …, priority 2003, published 2007)

Test system: mouse ES cell-derived IPCCs
Assay: Insulin production by mouse ES cell-derived insulin-producing cell clusters (IPCCs)
Type: cell-based
Procedure: In duplicate experiments, we detect approximately 6000 ng insulin/mg protein produced by mouse embryoid bodies treated with a sequence of growth factors including GDF8.

Substance: GDF8: BMP/TGF-beta family growth factor, ~80% identical to GDF11 in the mature region
- effect on insulin production (mouse ES cell-derived IPCCs): promotes insulin production
- insulin produced by mouse embryoid bodies (mouse embryoid bodies treated with a sequence of growth factors including GDF8, duplicate experiments): approximately 6000 ng insulin/mg protein
